Experimental data: patent US7968526B2, “Antisense oligonucleotides directed to ribonucleotide reductase R2 and uses thereof in the treatment of cancer” (Lorus Therapeutics Inc., priority 2003, dated 2011)
Entries after “also recorded” stand apart in the source; their conditions may differ.

Key:
[1] = tested on: A498 human kidney cancer cells; experiment: A498 kidney tumour growth in SCID mice (3.9); type: in vivo, human cells in mice
Description: Treatments lasted for 14 days thereafter. Antitumour activities were estimated by the inhibition of tumour volume, which was measured with a caliper on four different occasions over the treatment period. Each point represents mean tumour volume calculated from 5 animals per experimental group. […] Control animals (control) received saline alone for the same period. At the end of the treatments, the animals were sacrificed, tumours were excised and their weights were measured. Each bar represents mean tumour weight calculated from 6 animals per experimental group. […] Treatments lasted for 24 days thereafter. Antitumour activities were estimated by the inhibition of tumour volume, which was measured with a caliper at two-day intervals over the treatment period. Each point represents mean tumour volume calculated from 4 animals per experimental group. […] Treatments lasted for 24 days thereafter. Antitumour activities were estimated by the inhibition of tumour volume, which was measured with a caliper at two-day intervals over the treatment period. Each point represents mean tumour volume calculated from 4 animals per experimental group. […] Each point represents mean tumour volume calculated from 5 animals per experimental group. […] Antitumour activities were estimated by the inhibition of tumour volume, which was measured with a caliper on four different occasions over 16-day period. […]

[2] = tested on: C8161 human melanoma cells; experiment: Experimental metastasis of C8161 cells treated ex vivo, lung nodules in CD-1 nude mice (4.2); parameters: species or system human cells in mice
Description: • 4.1 Experimental metastasis of mouse fibrosarcoma (R3) cells treated with different antisense oligonucleotides in a syngenetic model was estimated as follows. Aliquots of R3 cell suspension were seeded into 100 mm tissue culture dishes at a density of 2×10^6 and incubated overnight at 37° C. in α-MEM medium supplemented with 10% FBS. Cells were washed once in 10 ml of PBS and treated with 0.2 μM of SEQ ID NO: 1 in the presence of cationic lipid (Lipofectin reagent, final concentration, 10 μg/ml, Gibco BRL) for 4 hr. Cells were treated with either saline alone (C) or lipofectin alone (RE) as controls. Oligonucleotide was removed by washing the cells once with PBS and the cells were trypsinized. Cells were then collected by centrifugation, and approximately 1×10^5 cells suspended in 0.2 ml of PBS were injected into the tail veins of 10 week-old C3H female mice. Estimates of the number of lung tumours were made 20 days later, after excised lungs from individual mice were stained with picric acid dye solution (75% picric acid, 20% formaldehyde, 5% glacial acetic acid). Bars represent mean number of tumour nodules in lungs obtained from 4 to 5 animals per experimental group. […] Aliquots of C8161 cell suspension were seeded into 100 mm tissue culture dishes at a density of 2×10^6 and incubated overnight at 37° C. in α-MEM medium supplemented with 10% FBS. […]

## 5′-GGCTAAATCGCTCCACCAAG-3′ (all phosphorothioate, sugars by position and methylation of C not given here) [SEQ ID NO: 1, fully phosphorothioated antisense oligonucleotide that hybridizes to the coding region of R2 mRNA]
[1]; A498, SCID mice, 10 mg/kg i.v. every other day to day 52
  Inhibitory effect on tumour growth (tumour volume, FIG. 21B): powerful inhibitory effects on the growth of human renal carcinoma cells, resulting in total regression of the tumours
[1]; Human Renal Carcinoma^2 (third entry of Table 5)
  Tumour regression: Complete regression of all tumours in treated
[2]; C8161 cells treated with 0.2 μM + Lipofectin for 4 hr before i.v. injection into CD-1 nude mice
  Formation of lung colonies / nodules: significantly reduced the formation of lung colonies; also recorded: significantly reduces the extent of lung nodule formation
[2]; Human Melanoma (ex vivo and in vivo)
  Decrease in the number of tumour metastases to lungs: Decrease by approximately 95% in the number
